Laboratory results taken from patent US8946226B2, “Use of CDK inhibitor for the treatment of glioma” (Nerviano Medical Sciences S.r.l., priority 2008, dated 2015).

Columns and labels:
[1] = Levels of compound in brain and plasma by LC/MS/MS; format: in vivo, Han Wistar rats; conditions: rat; for Brain levels: average
Protocol: The animals were sacrificed on day 6 at 2 and 6 hours after dosing. Brain and plasma were taken at the sacrifice time. Blood was put in heparinised plastic tubes, kept in ice-water bath, and then centrifuged (10 minutes, 1200 g at 4° C.). Brain and plasma samples were stored in a freezer at −80° C. until analysis. The levels of compound of formula (I) were analysed by LC/MS/MS.

SF539 [2] = test: Inhibition of cell proliferation (cellular ATP monitoring); format: cell-based; conditions: Homo sapiens, SF-539; SF539, 72 hours
Protocol: (§1) SF-268, SF-295, SF-539 and U251 cell lines were cultured in RPMI 1640 added with 10% FCS and 2 mM glutamine and U-87MG cell line was cultured in EMEM added with 10% FCS, […] and 1% NEAA. For all the experiments cells were seeded at the density of 1×10^4/cm^2, the day after treatment with the compound for the prescribed duration and then collected at the reported times.
(§2) Cells were washed and counted 72 hours after the treatment. Cell proliferation was determined by a cellular adenosine triphosphate monitoring system. Cell proliferation was compared to control cells. The concentration inhibiting cell proliferation by 50% (IC50) was calculated.

U87MG [3] = test: as above; format: cell-based; conditions: Homo sapiens, U-87 MG, 72 hours
Protocol: as §1, §2

SF295 [4] = test: as above; format: cell-based; conditions: Homo sapiens, SF-295; SF295, 72 hours
Protocol: as §1, §2

U251 [5] = test: as above; format: cell-based; conditions: Homo sapiens, U-251; U251, 72 hours
Protocol: as §1, §2

SF268 [6] = test: as above; format: cell-based; conditions: Homo sapiens, SF-268; SF268, 72 hours
Protocol: as §1, §2

[7] = tested on: all the tested glioma cells; test: Acridine orange staining to evaluate autophagy, summary over cell lines; format: cell-based
Protocol: as §1
(§3) During the last 15 minutes of incubation, acridine orange (1 μg/ml) was added to the cells that were then collected, washed with PBS and analyzed by FACS for their fluorescence emission. Acridine orange moves freely to cross biological membranes but, when in the cytoplasm and nucleolus, fluoresces bright green and dim red; in the acidic vacuoles generated by autophagy appears bright red.

U251 [8] = test: Analysis of BrdU incorporation (FACS); format: cell-based, human; conditions: U251, 24 hour-treatment
Protocol: as §1
(§4) BrdU (5-bromo-2′ deoxyuridine) was added to the cell culture at the final concentration of 30 μM for the last hour of a 24 hour-treatment. Cells were washed with PBS, fixed in 70% ethanol and stored at −20° C. At the moment of the analysis cells were centrifuged, washed with 1% FCS in PBS and DNA denaturated with HCl 2N for 20 minutes. After a wash in Na2B4O7 0.1M pH 8.5, cells were incubated with a solution of 0.5% Tween20 in PBS+1% FCS for 15 minutes and then centrifuged. The pellets were resuspended in 150 μl of a 1:10 diluted unconjugated anti-BrdU monoclonal antibody (Becton Dickinson) and incubated for 1 hour at room temperature. After a wash in PBS, the incubation with 0.5% Tween20 was repeated; then the secondary antibody was added (1:50 diluted FITC-conjugated goat anti mouse immunoglobulin (Jackson Lab.)). After one hour at room temperature the cells were rinsed again, counterstained with propidium iodide (2 μg/ml+12.5 μg/ml DNAse-free RNAse) overnight, then analyzed by FACS.

[9] = tested on: all the tested glioma cells; test: Inhibition of cell proliferation, summary over cell lines; format: cell-based; conditions: 72 hours, read-out: IC50 (inhibit proliferation), range over cell lines
Protocol: as §1, §2

U251 cells [10] = test: Efficacy on intracranially implanted glioma tumor model; format: in vivo, Athymic male nude mice; conditions: 40 mg/kg bid OS, FIG. 3
Protocol: Animals that underwent surgical procedures were anesthetized following one of the above mentioned protocols, i.e. Ketamin, 80-100 mg/kg i.p.+Xilazin: 10 mg/kg i.p.; Isofluorane: 1.5-2%. Athymic male nude mice, aged 6-8 weeks were anesthetized, placed under the stereotaxic apparatus and gently fixed with ear bars and into the head holder. Skin of the head was cut longitudinally (parallel to ears) and skull of the mouse discovered. With the X and Y axis controller of the apparatus, bregma (interception between median sagittal and anterior coronal sutures to perform injection into the cerebral nuclei) and lambda (interception between median sagittal suture and posterior coronal suture to perform injection into the cerebellum) were identified as point 0. The following coordinates were set in the apparatus and the point of injection identified. With a microdrill a small hole was done in the desired point. Cells were aspirated with the Hamilton syringe (usually […]) just prior injection (a short mix of cells before aspiration was performed to avoid precipitation of cells). By pointing to the hole, Z axis was fixed to 0 and syringe gently inserted into the brain until reaching the right coordinate (−3.0 mm depth). U251 cells were injected at the speed of 1 μl per minute. […] After the end of the surgery mice were monitored for recovery until complete wakening.

U251 human glioma cells = format: in vivo
Protocol: Balb, Nu/Nu male mice, from Harlan (Italy), were maintained in cages with paper filter cover, food and bedding sterilized and water acidified. 2.5×10^6 U251 human glioma cells (from the American Type Culture Collection) were injected subcutaneously in athymic mice. […] Tumor growth and body weight were measured every 3 days. Tumor growth was assessed by caliper. The two diameters were recorded and the tumor weight was calculated according the following formula: length (mm)×width^2/2. Toxicity was evaluated on the basis of body weight reduction.

all glioma cell lines = test: Mode of action by Western blot analysis; format: cell-based; conditions: independently from the status of Rb pathway
Protocol: (§5) Treated cells were lysed by adding SDS sample buffer (0.125M Tris-HCl pH6.8, 5% SDS). Samples were heated to 95° C. for 5 minutes and then sonicated using an Ultrasonic 2000 ARTEK. Lysed cells were centrifuged at 13,000 RPM for 10 minutes. Protein quantification was determined using BCA buffer (Pierce) and a BSA standard curve. 20 μg protein extract per well were loaded and separated by SDS-PAGE gel 7.5-10% (PAGE-PLUS 40% concentrate AMRESCO). The gel was blotted onto nitrocellulose filters (Hybond Amersham) in a buffer containing 25 mM Tris HCl pH 8.3, 192 mM Glycine and 20% methanol. The filters were saturated in 5% low-fat milk in TBS containing 0.1% Tween 20 (TBS-T) for 2 hours at room temperature and than incubated overnight at 4° C. with the primary monoclonal followed by washes in TBS-T and incubation using a secondary anti mouse antibody. The bands were visualized using the “Super Signal West Pico” Pierce.

SF-539 cells = test: Mode of action by Western blot analysis; format: cell-based; conditions: SF-539 cells treated for 6 hours, 3 μM, FIG. 2
Protocol: as §5

SF539 [11] = test: Acridine orange staining to evaluate autophagy (FACS); format: cell-based; conditions: SF539, 6 μM
Protocol: as §1, §3

U87MG [12] = test: as above; format: cell-based; conditions: 3 μM
Protocol: as §1, §3

SF295 [13] = test: as above; format: cell-based; conditions: SF295, 3 μM
Protocol: as §1, §3

SF268 [14] = test: as above; format: cell-based; conditions: SF268, 3 μM
Protocol: as §1, §3

SF539 [15] = test: Analysis of BrdU incorporation (FACS); format: cell-based; conditions: SF539, 24 hour-treatment
Protocol: as §1, §4

U87MG [16] = test: Analysis of BrdU incorporation (FACS); format: cell-based; conditions: 24 hour-treatment
Protocol: as §1, §4

SF295 [17] = test: Analysis of BrdU incorporation (FACS); format: cell-based; conditions: SF295, 24 hour-treatment
Protocol: as §1, §4

SF268 [18] = test: Analysis of BrdU incorporation (FACS); format: cell-based; conditions: SF268, 24 hour-treatment
Protocol: as §1, §4

U251 [19] = test: Acridine orange staining to evaluate autophagy (FACS); format: cell-based, human; conditions: U251, 3 μM
Protocol: as §1, §3

U251 cells [20] = test: Mode of action by Western blot analysis; format: cell-based, human; conditions: U251 cells treated for 24 hours, 1 and 3 μM, FIG. 1
Protocol: as §5

[21] = Radioactivity distribution in brain by autoradioluminography, plasma by LSC; format: in vivo, Sprague Dawley rats; conditions: 14C-labelled, single oral 20 mg/kg as maleate salt, rat
Protocol: Animals were sacrificed 2, 6 and 24 hours after administration (2 animals at each selected time) and the radioactivity distribution of compound-related material was evaluated in intact brain, after excision. The autoradioluminography method was used to evaluate the quantitative radioactivity distribution in the brain.
The radioactivity distribution was also evaluated in blood and plasma collected from the animals after sacrifice. The radioactivity levels in blood and plasma were determined by Liquid Scintillation Counting (LSC).

Question: What does the source list for `CNC(=O)c1nn(C)c2c1C(C)(C)Cc1cnc(Nc3ccc(N4CCN(C)CC4)cc3)nc1-2` [compound of formula (I), 8-[4-(4-methyl-piperazin-1-yl)-phenylamino]-1,4,4-trimethyl-4,5-dihydro-1H-pyrazolo[4,3-h]quinazoline-3-carboxylic acid methylamide]?
Answer: Kp ([1]; Han Wistar, brain/plasma, oral 60 mg/kg for 6 days, assuming a density equal to 1, read-out: brain levels times higher than plasma levels): 6.1 to 9.6; concentration at 2 h ([1]; Han Wistar, plasma, oral 60 mg/kg for 6 consecutive days, day 6, 2 hours post-dosing): 9.8 µM; concentration at 6 h ([1]; Han Wistar, plasma, oral 60 mg/kg for 6 consecutive days, day 6, 6 hours post-dosing): 8.4 µM; Brain levels ([1]; oral 60 mg/kg for 6 consecutive days, day 6, 2 hours post-dosing): 88.9 nmoles/gr of tissue; Brain levels ([1]; oral 60 mg/kg for 6 consecutive days, day 6, 6 hours post-dosing): 69.4 nmoles/gr of tissue; IC50 (SF539 [2]): 1400 nM; IC50 (U87MG [3]): 1600 nM; IC50 (SF295 [4]): 5400 nM; IC50 (U251 [5]): 2800 nM; IC50 (SF268 [6]): 2500 nM; induce autophagy, % of the cells, range over cell lines [7]: 36-70%; % BrdU inhib (U251 [8]): 74%; IC50 [9]: 1400 to 5400 nM; increase in the survival time in comparison to vehicle-treated control mice (U251 cells [10]): 30%; Max tumor growth inhibition (%) (U251 human glioma cells; U251 subcutaneous xenograft, oral 40 mg/kg BID for 10 consecutive days): 80%; Toxicity (U251 human glioma cells; male, Balb Nu/Nu, mouse, in vivo, po, 40 mg/kg, 10 days): 0/8; cell cycle related markers (all glioma cell lines): decrease; phosphorylation of TRKA receptor (SF-539 cells): Inhibition; phosphorylation of downstream proteins, both in the MAPK and in AKT pathway (SF-539 cells): Inhibition; Autophagy % (SF539 [11]): 35 (6 μM) %; Autophagy % (U87MG [12]): 50 (3 μM) %; Autophagy % (SF295 [13]): 68 (3 μM) %; Autophagy % (SF268 [14]): 70 (3 μM) %; % BrdU inhib (SF539 [15]): 39%; % BrdU inhib (U87MG [16]): 92%; % BrdU inhib (SF295 [17]): 74%; % BrdU inhib (SF268 [18]): 78%; Autophagy % (U251 [19]): 58 (3 μM) %; Rb phosphorylation (U251 cells [20]): strong inhibition; cdc6 expression (U251 cells [20]): strong inhibition; cyclin A expression (U251 cells [20]): strong inhibition; cyclin B1 expression (U251 cells [20]): strong inhibition; Brain (total radioactivity) ([21]; 2 h): 4.6 μg eq/g; Cerebellum (total radioactivity) ([21]; 2 h): 4.4 μg eq/g; Plasma (total radioactivity) ([21]; 2 h): 1.43 μg eq/g; Brain (total radioactivity) ([21]; 6 h): 1.4 μg eq/g; Cerebellum (total radioactivity) ([21]; 6 h): 1.5 μg eq/g; Plasma (total radioactivity) ([21]; 6 h): 0.89 μg eq/g; Brain (total radioactivity) ([21]; 24 h): 0.4 μg eq/g; Cerebellum (total radioactivity) ([21]; 24 h): 0.4 μg eq/g; Plasma (total radioactivity) ([21]; 24 h): 0.14 μg eq/g
